{"source": "patent US20100261639A1", "about": "“TRIAZOLE-BASED AMINOGLYCOSIDE-PEPTIDE CONJUGATES AND METHODS OF USE” (UNIVERSITY OF MANITOBA, priority 2007, published 2010)", "system": "S. aureus ATCC 29213", "assay": "MIC, macrobroth dilution, S. aureus ATCC 29213", "type": "cell-based, Staphylococcus aureus", "settings": "visible growth after 24 h at 37° C.", "experimental": "The microbiological activities of the neomycin-peptide conjugates and kanamycin-peptide conjugates against both American Type Culture Collection (ATCC) reference and clinical strains of Staphylococcus aureus, MRSA, Staphylococcus epidermidis, MRSE, Enterococcus faecalis, Enterococcus faecium, Streptococcus pneumoniae, E. coli, Pseudomonas aeruginosa, Stenotrophomonas maltophilia, Acinetobacter baumannii, and Klebsiella pneumoniae were assessed. Special focus was given to assess activity against multi-drug resistant strains of these pathogens. Antibiotic susceptibility testing was performed using the macrobroth dilution method as per Clinical Laboratory Standards Institute-CLSI (formerly National Committee for Clinical and Laboratory Standards-NCCLS) (Clinical and Laboratory Standards Institute, 2006). MIC values defined as the lowest concentration of antimicrobial agent which inhibited the development of visible growth after 24 h at 37° C."}
{"smiles": "NC[C@@H]1O[C@H](O[C@H]2[C@@H](O)[C@H](O[C@@H]3[C@@H](O)[C@H](N)C[C@H](N)[C@H]3O[C@H]3O[C@H](CN)[C@@H](O)[C@H](O)[C@H]3N)O[C@@H]2CO)[C@H](N)[C@@H](O)[C@@H]1O", "note": "[Neomycin B, neomycin B]", "values": [{"measurement": "minimal inhibitory concentration (MIC)", "result": 2, "unit": "µg/mL"}]}
